Consider four molecules from US5538712A, “Cyclopentadienylcarbonyl 99MTC complexes, process for their production as well as their use in diagnostics” (Institut Fur Diagnostikforschung GmbH/an der Freien …, priority 1990, dated 1996).

Like-named read-outs stand apart in the source and are kept apart here. Where only a bound is given, the exact number is not on record here.

Data set [1] in a line: Organ distribution in mice of 99mTc-acetylcymantrene. In kind it is in vivo. On the procedure:
(§1) The organ distributions in mice and rats as well as partially in rabbits were tested by the technetium-labeled cytectrene derivatives. The organ distribution of the ^99m Tc-labeled cytectrene derivatives is a function of the substituent on the cyclopentadienyl ring system.

The nature of data set [2]: Chemical stability, decomposition by chromatography. The note with it: after 24 hours, chromatographically. In kind it is physicochemical. From the text:
This lipophilic ^99m Tc-compound can be obtained in pure form by elution of the corresponding silica gel fraction (RF =0.36), e.g., with ethanol. The radiochemical purity is established by rechromatography of the eluate.

Data set [3] is described as follows: In vivo SPECT study of cerebral blood flow in rabbits. Also on record: species or system rabbits (New Zealander). The note with it: for contrast [brain/background]: rabbit SPECT, 8 minutes p.i., 15 minutes p.i.; for contrast [brain/background] / cerebral uptake: HM-PAO 59 MBq, cytectrene 14 MBq; for cerebral uptake: rabbit, i.v., test from 8 minutes p.i., from 15 minutes p.i., 2400 seconds. How it is done:
In an in vivo study on rabbits (New Zealander, breeding by Schering AG Berlin, approximately 4 kg, male), the cerebral blood flow of commercially available HM-PAO was compared with the N-methyl-piperidin-4-ol-cytectrenecarboxylic acid ester (produced analogously to example 6).
The study was made with a SPECT camera of Apex 409 type.
After nembutal anesthesia, the animal was intravenously administered 1 ml of an isotonic, aqueous, sterile solution of ^99m Tc-HMPAO or said cytectrene derivative.
The recording technique and the results are described by the following table.

The conditions of data set [4]: cited from earlier work.
For data set [5] the following is noted: clinical use, because of insufficient stability; cited from earlier work.
Data set [6] is described as follows: Organ distribution of Tc-labeled cytectrene derivatives vs pertechnetate (FIG. 1). Conditions: pertechnetate for comparison. In kind it is in vivo, mice and rats, partially rabbits. How it is done: as §1
FIG. 1 indicates the organ distribution of various cytectrene derivatives. For comparison, the organ distribution of pertechnetate was also recorded in this table. From the organ concentrations, it can clearly be recognized that the organ distribution of the cytectrene derivatives drastically differs from the distribution after administration of pertechnetate. With pertechnetate, the organ with the highest radioactivity concentration is blood (2.6% of dose/% body weight). On the other hand, the ^99m Tc cytectrene derivatives show a pronounced affinity for other, respectively different organs. The affinity for the individual organ is clearly dependent on the side chain of the cytectrene compound.

Data set [7] in a line: 99mTc concentration in rat brain and brain/blood concentration quotient (FIGS. 2 and 3). In kind it is in vivo. How it is done: FIG. 2 graphically illustrates the results of tests on ^99m Tc concentration in the brain (% dose/% weight). In the experiments, the rats (n=4) intravenously received about 5 μCi of the Tc-99-labeled ester dissolved in 0.1 ml of EtOH/0.9% NaCl per animal. The esters, i.e., 4-pip-ester, 3-pip-ester and quin.-ester, were obtained from cytectrene-carboxylic acid and the following, respectively: 4-hydroxy-N-(methyl)-piperidine, 3-hydroxy-N-(methyl)-piperidine and 3-quinuclidinol. 15 minutes after HM-PAO administration, the brain concentration is at 1.7% dose/% weight. […] The rats (n=4) intravenously received about 5 μCi of the Tc-99-labeled ester dissolved in 0.1 ml of EtOH/0.9% NaCl per animal. The esters tested were obtained from cytectrenecarboxylic acid and 4-hydroxy-N-(methyl)-piperidine, 3-hydroxy-N-(methyl)-piperidine and 3-quinuclidinol, respectively. 15 minutes after HM-PAO administration, the brain/blood quotient is at 1.5:1.

For `CC(=O)[C]1([Tc](=[C]=O)(=[C]=O)=[C]=O)C=CC=C1` [Example 1a, Tc-99m Acetyl-cytectrene], the organ distribution result in data set [1] is “preferred concentration in liver and suprarenal glands”. For the same molecule, the “chemical stability of the labeled compound” value in data set [2] is listed as “chemically stable, since after 24 hours, no decomposition is chromatographically detectable”; in data set [2] (listed as Example 1b), “chemically stable, after 24 hours, no decomposition is chromatographically detectable”.

As for `C/C(=N\O)C(C)NCC(C)(C)CNC(C)/C(C)=N/O` (centres unmarked) [HM-PAO, hexamethyl-propylenamine oxime], in data set [3], the “contrast [brain/background]” value is 0.98 and the cerebral uptake is recorded as 5.9 % of the administered activity. Moreover, the “concentration in the brain” value in data set [4] (comparable measurements for known compounds, L. Bacciottini et al. 1990) was “around 1.7 % dose/% body weight”. In addition, the “99mTc concentration in the brain” value in data set [4] (rat, 15 minutes after HM-PAO administration) is listed as 1.7 % dose/% weight. The “time after labeling within which it has to be administered” value in data set [5] is at most 30 min.

On to `[O]=[99Tc](=[O])(=[O])[O-]` [pertechnetate, ^99m Tc-pertechnetate], for which the “radioactivity concentration in blood (organ with the highest concentration)” value in data set [6] is on record as 2.6 % of dose/% body weight.

Consider “cyclopentadienylcarboxylic acid-(N-methyl-piperidinol)-4-ester-^99m technetium-tricarbonyl complex”, for which the “concentration ratio of brain/blood, improvement factor over HM-PAO” value in data set [7] (compared with HM-PAO complexes) was around 10 factor. In data set [7] (i.v., about 5 μCi), the “concentration in the brain” value was “about 4 % dose/% body weight”. Besides, in data set [3], the “contrast [brain/background]” value is reported as 0.98 and the cerebral uptake is given as 7.5 % of the administered activity. Also, the “visual delimitability of the brain in SPECT tests” value in data set [3] (rabbits, 14 MBq, compared with HM-PAO complex) is “more clearly visual delimitability of the brain in SPECT tests”.
